Test results published in patent US11447638B2, “Acetalanthraquinone derivatives useful for cellular staining” (BIOSTATUS LIMITED, priority 2016, dated 2022).

Assays:
[1] = system: MCF7; assay: MTT cellular viability (growth inhibition) assay, MCF7; type: cell-based; settings: Homo sapiens, 0.25-100 μM, 72 h, Table 3
Protocol: (§1) The viability of A549 or MCF7 in response to compounds was determined using the MTT (3-(4,5-dimethylthiazolyl-2-)-2, 5-diphenyltetrazolium bromide) assay according to the protocol set out in Mosmann T., Rapid colorimetric assay for cellular growth and survival: application to proliferation and cytotoxicity assays. Journal of immunological methods 1983; 65:55-63.
(§2) Initially, cells were seeded into a rounded-bottom 96 well plate (Corning) at six different cell seeding densities (0.5×104, 1×104, 2×104, 3×104, 4×104, and 5×104) per mL of R10 media (cells/mL) in order to optimise the assay and establish the most suitable seeding assay. Concentration of 1×10^4 cells/mL was determined to be the optimum seeding density for both cell lines for 96 h total incubation. A control lane contained supplemented R10 only. The 96 well plates were incubated overnight at 37° C., 5% CO2 and 100% humidity to allow cell adhesion. Cells were then treated respectively with novel AAQs (0.25-100 μM) or growth inhibition (IC50) of compounds of the invention was studied against MCF7 and A549 cancer cell lines. Compounds were tested with a concentration range between 0.25 and 100 μM for 72 h and doxorubicin, as positive cytotoxic control, was tested in parallel at the same doses.

[2] = system: A549; assay: MTT cellular viability (growth inhibition) assay, A549; type: cell-based; settings: Homo sapiens, 0.25-100 μM, 72 h, Table 3
Protocol: as §1, §2

[3] = Absorption and fluorescence spectra of compounds in PBS or HEPES; type: physicochemical; settings: for peak excitation wavelength: excitation wavelength used for fluorescence spectra of FIG. 1A/1B; for fluorescence emission, λ1 nm (Ex in HEPES) / fluorescence emission, λ1 nm (Ex in PBS): excited at absorption peak 1 (λ1); for fluorescence emission, λ1 nm (Ex in HEPES) / fluorescence emission, λ1 nm (Ex in PBS) / fluorescence emission, 540 nm (Ex in PBS): 20 μM; for fluorescence emission, 540 nm (Ex in PBS): excited at 540 nm
Protocol: The compounds were exited at 540 nm and at the wavelength of their absorption peak 1 (λ1 nm). The far-red fluorescent DNA dye DRAQ5 was used as reference.
Compounds were dissolved in DMSO (Sigma) to 20 mM stock concentration. DRAQ5 (Biostatus Ltd) was used as a control anthraquinone agent dissolved in deionised water. Working solutions were prepared in PBS (phosphate buffered saline; Sigma) or HEPES (4-(2-hydroxyethyl)-1-piperazineethanesulfonic acid; Sigma) at 20 or 40 μM. Probe solutions (20 μM), respectively in PBS or HEPES, were pipetted into a 1 mL quartz cuvette (Thermo Fisher Scientific). After obtaining baseline spectra in relevant buffer to zero the instrument, absorbance measurements were obtained using a Beckmann Coulter DU 800 UV/Visible spectrophotometer. The excitation wavelengths were scanned from 280 to 800 nm. Fluorescent spectral scans were performed using a Perkin Elmer LS-50B Luminescence spectrophotometer. To obtain emission scans, the excitation wavelength was set accordingly to the maximum values for each agent or another designated excitation wavelength that matches typical laser lines; and the emission wavelength were scanned from 400 nm to 900 nm in 1 nm increments. A Xenon flash lamp was used as the light source, with the lamp energy set to high. For each data point ten measurements were acquired with the photomultiplier tube sensitivity set at 125.
Compounds were excited at a wavelength corresponding to the first absorbance peak 1 (FIG. 1A and FIG. 1B show absorption (line) and fluorescence (dots) spectra of compounds; both are normalised to peak value.

[4] = system: U-2 OS cells; assay: Confocal laser scanning microscopy (CLSM) localisation analysis; type: cell-based, human; settings: 30 min incubation, Ex 637 nm, Em >665 nm, FIG. 4 and 5
Protocol: Confocal laser scanning microscopy (CLSM) was used to analyse the localisation of compounds BST-100, BST-101 and BST-106 with the U-2 OS cells, as it permitted the acquisition of volume limited optical sections through the cell and media. Excitation (637 nm) and emission (>665 nm) values for the probe analysis were the optimal conditions. The data sets obtained were processed and assembled into a single maximum projection image.
The patterns were analysed after 30 min incubation at different z depths and eliminating the solution background. The nucleus/cytoplasm ratio was calculated to quantify the localisation of the probe per cell.
A Radiance CLSM (BioRad Microscience) was used attached to an inverted Nikon microscope. Image acquisition was performed using excitation (637 nm) and emission (>665 nm) wavelengths. The histogram plot reports the nucleus/cytoplasm index to determine DNA binding in live cells. The calibration bar represents 10 μm.
The compounds BST-108, BST-109 were analysed in the same way.

[5] = system: A549 cells; assay: Flow cytometry analysis of cell uptake before/after hydrolysis; type: cell-based, human; settings: 20 μM, 30 min; for % ile (25): low loader cell population
Protocol: Flow cytometry analysis was performed to evaluate the effect of pre-treatment with HCl to generate an active aldehyde on the cell uptake properties. A549 cells were incubated for 30 min with compounds of Formula (I) and its hydrolysed forms (20 μM) prior to analysis. The rate of uptake was tested in A549 cell culture media and in Aldefluor buffer, containing the MDR-blocker verapamil (Pearce and Bonnet 2007), to evaluate the effect in uptake with/without the Aldefluor assay system. Analysis was conducted in the viable subset of cells, corresponding to ˜95% of the total amount under investigation.
Aldefluor buffer contained verapamil vs. cell media. The cells were incubated with 20 μM of the respective AAQ/HAAQs (30 min) before analysis
Statistical analysis of A549 uptake before/after hydrolysis was also studied. Experiments were performed in cell media versus Aldefluor buffer. Data were processed using FlowJo software (Tree Star). DRAQ5 was used to set the dynamic range and as control dye and empty cells were used to determine auto-fluorescence.

[6] = system: fixed human osteosarcoma U-2 OS cells; assay: Labelling of fixed cells, wide-field fluorescence microscopy; type: cell-based; settings: 20 μM, 1 h exposure in PBS, FIG. 2
Protocol: Cells were seeded in a 24 well coverslip bottomed-plate, cultured overnight in McCoys media. 24 or 48 hours later the cells were washed gently with 3×2 mL PBS per well. The PBS was removed and 0.5 mL of 4% paraformaldehyde solution [a 4% paraformaldehyde solution in PBS was made fresh each time from a 16% stock solution (Thermo Fisher Scientific)] was added in each well and cells were incubated for 30 min. The paraformaldehyde was removed and cells were washed 3×2 mL PBS per well. 1 mL of PBS or HEPES was added to each well.
(§3) Before analysis, cells were incubated at 37° C. in the dark for the period designated. Samples were analysed directly without any further washing step. For live cell labelling cells were seeded, plated in a similar way, into a similar multi-well dish for optimal optical performance and could be used across all microscope platforms.
(§4) This basic protocol was the standard for testing the patterns of AAQ agents at 20 μM, compared to 20 μM of DRAQ5 as the benchmark reference (both in terms of cellular location and ability to detect the red fluorescence).
Low resolution wide-field fluorescence microscopy was used to evaluate cell labelling in fixed human osteosarcoma U-2 OS cells. The system was an Axiovert 100 microscope (Carl Zeiss, Welwyn Garden City, UK) ×10 0.3 NA air objective lens and an ORCA-ER CCD camera (Hamamatsu, Reading, UK). Illumination was controlled by a shutter in front of the transmission lamp. Image capture was controlled using Metamorph software. This evaluates the ability of the compounds to label cellular compartments without active uptake or efflux prohibiting delivery into the given cell. Image collection was performed after 1 h of exposure to probes in PBS. The calibration bar represents 50 μm.

[7] = system: A549 live cells; assay: Loading of A549 live cells, wide-field fluorescence microscopy; type: cell-based, human; settings: 20 μM, 30 min incubation, FIG. 3
Protocol: as §3, §4
Low resolution wide-field fluorescence microscopy was used to evaluate cell uptake and localisation of the probe compounds. The system was an Axiovert 100 microscope (Carl Zeiss, Welwyn Garden City, UK) ×10 0.3 NA air objective lens and an ORCA-ER CCD camera (Hamamatsu, Reading, UK). Illumination was controlled by a shutter in front of the transmission lamp. Image capture was controlled using Metamorph software. Human non-small cell lung cancer A549 cell line was used as the cell model to determine whether variation of the probe loading and localisation occurred in cell population sustaining a “side population” (SP) (Smith P J, Wiltshire M, Chappell S C, Cosentino L, Burns P A, Pors K, Errington R J. Kinetic analysis of intracellular Hoechst 33342—DNA interactions by flow cytometry: misinterpretation of side population status? Cytometry A 2013; 83:161-9) with a known capacity to efflux xenobiotic molecules, including the DNA dye Hoechst 33342.
Cells were incubated for 30 min with each compound and then images were collected at a 30 ms exposure time using low resolution wide-field fluorescence microscopy. Using an Axiovert 100 microscope (Carl Zeiss, Welwyn Garden City, UK) ×10 0.3 NA air objective lens and an ORCA-ER CCD camera (Hamamatsu, Reading, UK). Illumination was controlled by a shutter in front of the transmission lamp. Image capture was controlled using Metamorph software. The calibration bar represents 50 μm.

[8] = solution: Aldefluor buffer with verapamil

IC50 [1] [nM]	IC50 [2] [µM]	peak excitation wavelength [3] [nm]	fluorescence emission, λ1 nm (Ex in HEPES) [3] [nm]	fluorescence emission, λ1 nm (Ex in PBS) [3] [nm]	fluorescence emission, 540 nm (Ex in PBS) [3] [nm]	Structure (SMILES)	further results
11300	11.7	584	664	660	670	COC(CCCCNc1ccc(NCCN(C)C)c2c1C(=O)c1ccccc1C2=O)OC [BST-106, 1-(5,5-Dimethoxypentylamino)-4-(2-(dimethylamino)ethylamino) anthracene-9,10-dione]	Median (fluorescence, uptake) [5, 8]: 96.13; % ile (25) [5, 8]: 81.66; Median (fluorescence, uptake) ([5]; solution: media): 101.48; % ile (25) ([5]; solution: media): 84.64; fluorescence brightness / background in fixed cells [6]: very bright background; staining pattern in fixed cells [6]: diffuse cytoplasmic staining, with some perinuclear and nucleoli labelling; subcellular localisation by CLSM [4]: additional nuclear signal; fluorescence brightness / background in live cells [7]: high background; staining pattern in live cells [7]: heterogeneous cytoplasmic staining
1750	> 100	585	663	661	670	COC(CNC(=O)CCNc1ccc(NCCC(=O)NCC(OC)OC)c2c1C(=O)c1ccccc1C2=O)OC [BST-102, 3,3′-(9,10-Dioxo-9,10-dihydroanthracene-1,4-diyl)bis(azanediyl)bis(N-(2,2-dimethoxyethyl)propanamide)]	–
–	–	–	726	684	712	COC(CNC(=O)CCNc1ccc(NCCC(=O)NCC(OC)OC)c2c1C(=O)c1c(O)ccc(O)c1C2=O)OC [BST-104, 3,3′-(5,8-dihydroxy-9,10-dioxo-9,10-dihydroanthracene-1,4diyl)bis(azanediyl)bis(N-(2,2-dimethoxyethyl)propanamide)]	–

Second part, the molecule before the results:

Structure (SMILES)	IC50 [1] [nM]	IC50 [2] [µM]	peak excitation wavelength [3] [nm]	fluorescence emission, λ1 nm (Ex in HEPES) [3] [nm]	fluorescence emission, λ1 nm (Ex in PBS) [3] [nm]	fluorescence emission, 540 nm (Ex in PBS) [3] [nm]	further results
COC(CCCCNc1ccc(NCCN(C)C)c2c1C(=O)c1c(O)ccc(O)c1C2=O)OC [BST-107, 1-(5,5-Dimethoxypentylamino)-4-(2-(dimethylamino)ethylamino)-5,8-dihydroxyanthracene-9,10-dione]	1660	17.5	–	–	–	–	–
COC(CCCCNc1ccc(NCCCCC(OC)OC)c2c1C(=O)c1c(O)ccc(O)c1C2=O)OC [BST-100, 1,4-Bis(5,5-dimethoxypentylamino)-5,8-dihydroxyanthracene-9,10-dione]	–	–	584	740	747.5	–	subcellular localisation by CLSM [4]: low levels of probe in the perinuclear region, with probable overload in Golgi body and large vesicles
CN(C)CCNc1ccc(O)c2c1C(=O)c1c(O)ccc(NCCN(C)C)c1C2=O [DRAQ5, reference compound]	–	–	–	>665	>665	635	Median (fluorescence, uptake) ([5]; solution: media): 217.4; % ile (25) ([5]; solution: media): 191.27
COC(CN(CCNc1ccc(NCCN(Cc2ccccc2)CC(OC)OC)c2c1C(=O)c1c(O)ccc(O)c1C2=O)Cc1ccccc1)OC [BST-202, 1,4-bis((2-(benzyl(2,2-dimethoxyethyl)amino)ethyl)amino)-5,8-dihydroxyanthracene-9,10-dione]	–	–	–	680	–	–	–
COC(CN(C)CCNc1ccc(NCCN(C)CC(OC)OC)c2c1C(=O)c1c(O)ccc(O)c1C2=O)OC [BST-201, 1,4-bis((2-((2,2-dimethoxyethyl)(methyl)amino)ethyl)amino)-5,8-dihydroxyanthracene-9,10-dione]	–	–	–	684	690.5	684	staining pattern in live cells [7]: perinuclear accumulation
COc1cccc2c1C(=O)c1c(O)c3c(c(O)c1C2=O)C[C@@](O)(C(=O)CO)C[C@@H]3O[C@H]1C[C@H](N)[C@H](O)[C@H](C)O1 [Doxorubicin, doxorubicin, reference compound]	28	0.05	–	–	–	–	–
